Measurements as given in US10508111B2, “6-[5-amino-6-(2-ethoxyethoxy)-imidazo[4,5-B]pyridin-3-yl]-nicotinonitrile derivatives and their use as IRAK inhibitors” (GALAPAGOS NV, priority 2015, dated 2019).

How the values were obtained:
Type in all cases: biochemical
[1] = target: T1, CDK9 (Homo sapiens, UniProt P50750); assay: Kinase selectivity profiling (focused panel), radioactive filter plate assay: CDK9; settings: PDKtide, 0.25 μM ATP, 60 min
T1 construct: purchased Millipore 14-685
Procedure: (§1) The purpose of this assay is to determine the activity and selectivity of a compound of the invention on a selected range of human kinases which may result in undesirable side-effects when inhibited (Dy & Adjei 2013; Force & Kolaja 2011).
(§2) The IC50 value for off-target kinases is determined in radioactive filter plate assays. The principle of the assays consists in the measurement of incorporated ^33P into a peptide substrate upon phosphorylation by the kinase enzyme using [γ-^33P]ATP and ATP. Unincorporated ^33P is removed by loading the samples on a filter plate (using a harvester, PerkinElmer) and 6 subsequent washing steps. Incorporated ^33P in the peptide substrate is measured by a scintillation counter (Topcount, PerkinElmer) after addition of MicroScint™-20 (PerkinElmer, 6013621) to the filter plates.
(§3) 5 μL of a water dilution series of test compound (starting from 20 μM or 6.6 μM highest concentration), from a 100% DMSO stock solution, 1/5 dilution, is added to the wells (final DMSO concentration of 1% in reaction assay). Enzyme and peptide substrate are used at optimized concentrations (cf. Table VI). The enzyme and substrate are diluted in assay buffer to a total volume of 11 μL. The reaction is started by addition of 9 μL of ATP+[γ-^33P]ATP, diluted in the same buffer as enzyme and substrate. The mixture is incubated at 30° C. The reaction is terminated by adding 25 μL of 150 mM phosphoric acid. Samples are transferred to filter plates and incorporated radioactivity is measured using a scintillation counter.
(§4) The incubation time, assay buffer composition, and concentrations of ATP, enzyme and substrate are reported in Table VI for example kinase off-target assays.
(§5) 10 μM staurosporine (1% DMSO) is used as positive control (100% inhibition); vehicle (water+1% DMSO) as negative control (0% inhibition).

[2] = target: T2, c-SRC (Homo sapiens, UniProt P12931); assay: Kinase selectivity profiling (focused panel), radioactive filter plate assay: c-SRC; settings: PolyGT substrate, 0.25 μM ATP, 60 min
T2 construct: purchased Carna Biosciences 08-173
T2 sequence (P12931 whole entry): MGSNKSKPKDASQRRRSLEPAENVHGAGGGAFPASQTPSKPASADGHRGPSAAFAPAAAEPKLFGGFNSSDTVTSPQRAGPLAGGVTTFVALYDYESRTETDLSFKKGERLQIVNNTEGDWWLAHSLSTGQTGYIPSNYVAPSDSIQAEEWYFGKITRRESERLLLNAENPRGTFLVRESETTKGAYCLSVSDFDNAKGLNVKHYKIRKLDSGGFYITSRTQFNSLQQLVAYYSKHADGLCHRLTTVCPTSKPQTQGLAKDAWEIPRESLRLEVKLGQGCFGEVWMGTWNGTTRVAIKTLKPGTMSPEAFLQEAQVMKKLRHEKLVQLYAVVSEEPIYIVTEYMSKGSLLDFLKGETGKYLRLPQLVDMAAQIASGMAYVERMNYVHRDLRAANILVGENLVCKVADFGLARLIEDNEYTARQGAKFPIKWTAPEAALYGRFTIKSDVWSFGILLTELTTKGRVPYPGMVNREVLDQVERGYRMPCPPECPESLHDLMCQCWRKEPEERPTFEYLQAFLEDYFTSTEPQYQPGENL
Procedure: as §1, §2, §3, §4, §5

[3] = target: T3, human IRAK-4 (Homo sapiens, UniProt Q9NWZ3); assay: IC50 determination for human IRAK-4, radioactive filter plate assay; settings: RIP140 substrate, 1 μM ATP + [γ-33P]ATP, 30° C., 45 min; read-out: hIRAK-4 IC50
T3 construct: purchased Carna Biosciences 09-145
T3 sequence (Q9NWZ3 1-460): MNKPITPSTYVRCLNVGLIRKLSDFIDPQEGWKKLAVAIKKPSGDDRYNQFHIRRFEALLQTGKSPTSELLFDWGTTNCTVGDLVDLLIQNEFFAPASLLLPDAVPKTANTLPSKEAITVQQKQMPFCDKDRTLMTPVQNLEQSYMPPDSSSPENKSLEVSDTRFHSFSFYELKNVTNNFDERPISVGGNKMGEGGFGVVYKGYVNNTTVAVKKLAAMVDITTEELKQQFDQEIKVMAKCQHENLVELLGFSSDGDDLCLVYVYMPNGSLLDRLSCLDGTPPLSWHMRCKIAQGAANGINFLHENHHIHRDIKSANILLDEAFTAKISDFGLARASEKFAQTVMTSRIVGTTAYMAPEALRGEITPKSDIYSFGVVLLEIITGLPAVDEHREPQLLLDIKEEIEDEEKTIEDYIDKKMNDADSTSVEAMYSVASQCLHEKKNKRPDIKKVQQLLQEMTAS
Procedure: The IC50 value for IRAK-4 is determined in a radioactive filter plate assay. The principle of the assay consists in the measurement of incorporated ^33P into the RIP140 substrate upon phosphorylation by the enzyme IRAK-4 using [γ-^33P]ATP and ATP. Unincorporated ^33P is removed by loading the samples on a filter plate (using a harvester, PerkinElmer) and 6 subsequent washing steps. Incorporated ^33P in RIP140 is measured by a scintillation counter (Topcount, PerkinElmer) after addition of MicroScint™-20 (PerkinElmer, 6013621) to the filter plates.
5 μL of a water dilution series of test compound (starting from 20 μM or 6.6 μM highest concentration), from a 100% DMSO stock solution, 1/5 dilution, is added to the wells (final DMSO concentration of 1% in reaction assay). IRAK-4 (Carna Biosciences, 09-145) and RIP140 (SEQ ID1, cf. Table VII) are used at a final concentration of 10 ng/mL and 4 μM, respectively. The enzyme and substrate are diluted in 25 mM Tris pH 7.5, 0.025% Triton X-100, 5 mM MnCl2, and 2 mM DTT to a total volume of 11 μL. The reaction is started by addition of 9 μL of 1 μM ATP (Sigma, A6419-5G)+0.25 μCi [γ-^33P]ATP (PerkinElmer, NEG602K001MC), diluted in the same buffer as enzyme and substrate. The mixture is incubated at 30° C. for 45 min. The reaction is terminated by adding 25 μL of 150 mM phosphoric acid (VWR, 1.00573.1000). Samples are transferred to filter plates and incorporated radioactivity is measured using a scintillation counter.
as §5

[4] = target: T4, CDK2 (Homo sapiens, UniProt P24941); assay: Kinase selectivity profiling (focused panel), radioactive filter plate assay: CDK2; settings: Histone H1-derived peptide, 0.1 μM ATP, 60 min
T4 construct: purchased Carna Biosciences 04-103
Procedure: as §1, §2, §3, §4, §5

[5] = target: T5, GSK3b (Homo sapiens, UniProt P49841); assay: Kinase selectivity profiling (focused panel), radioactive filter plate assay: GSK3b; settings: Phospho glycogen synthase peptide2, 1.5 μM ATP, 90 min
T5 construct: purchased Carna Biosciences 04-141
T5 sequence (P49841 whole entry): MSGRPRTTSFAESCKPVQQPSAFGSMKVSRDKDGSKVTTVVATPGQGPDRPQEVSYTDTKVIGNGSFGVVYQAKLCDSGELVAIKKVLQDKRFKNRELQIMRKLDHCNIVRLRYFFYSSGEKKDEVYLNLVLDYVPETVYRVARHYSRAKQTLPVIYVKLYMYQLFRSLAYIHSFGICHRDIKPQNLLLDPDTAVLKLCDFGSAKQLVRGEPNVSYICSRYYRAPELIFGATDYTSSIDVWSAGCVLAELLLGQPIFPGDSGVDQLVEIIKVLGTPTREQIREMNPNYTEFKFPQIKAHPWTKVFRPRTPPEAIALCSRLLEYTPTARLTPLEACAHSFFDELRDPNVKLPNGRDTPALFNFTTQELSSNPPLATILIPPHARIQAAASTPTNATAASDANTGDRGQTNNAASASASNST
Procedure: as §1, §2, §3, §4, §5

[6] = target: T6, ABL (Homo sapiens, UniProt P00519); assay: Kinase selectivity profiling (focused panel), radioactive filter plate assay: ABL; settings: PolyGT substrate, 0.5 μM ATP, 60 min
T6 construct: purchased Life Technologies P3049
T6 sequence (P00519 whole entry): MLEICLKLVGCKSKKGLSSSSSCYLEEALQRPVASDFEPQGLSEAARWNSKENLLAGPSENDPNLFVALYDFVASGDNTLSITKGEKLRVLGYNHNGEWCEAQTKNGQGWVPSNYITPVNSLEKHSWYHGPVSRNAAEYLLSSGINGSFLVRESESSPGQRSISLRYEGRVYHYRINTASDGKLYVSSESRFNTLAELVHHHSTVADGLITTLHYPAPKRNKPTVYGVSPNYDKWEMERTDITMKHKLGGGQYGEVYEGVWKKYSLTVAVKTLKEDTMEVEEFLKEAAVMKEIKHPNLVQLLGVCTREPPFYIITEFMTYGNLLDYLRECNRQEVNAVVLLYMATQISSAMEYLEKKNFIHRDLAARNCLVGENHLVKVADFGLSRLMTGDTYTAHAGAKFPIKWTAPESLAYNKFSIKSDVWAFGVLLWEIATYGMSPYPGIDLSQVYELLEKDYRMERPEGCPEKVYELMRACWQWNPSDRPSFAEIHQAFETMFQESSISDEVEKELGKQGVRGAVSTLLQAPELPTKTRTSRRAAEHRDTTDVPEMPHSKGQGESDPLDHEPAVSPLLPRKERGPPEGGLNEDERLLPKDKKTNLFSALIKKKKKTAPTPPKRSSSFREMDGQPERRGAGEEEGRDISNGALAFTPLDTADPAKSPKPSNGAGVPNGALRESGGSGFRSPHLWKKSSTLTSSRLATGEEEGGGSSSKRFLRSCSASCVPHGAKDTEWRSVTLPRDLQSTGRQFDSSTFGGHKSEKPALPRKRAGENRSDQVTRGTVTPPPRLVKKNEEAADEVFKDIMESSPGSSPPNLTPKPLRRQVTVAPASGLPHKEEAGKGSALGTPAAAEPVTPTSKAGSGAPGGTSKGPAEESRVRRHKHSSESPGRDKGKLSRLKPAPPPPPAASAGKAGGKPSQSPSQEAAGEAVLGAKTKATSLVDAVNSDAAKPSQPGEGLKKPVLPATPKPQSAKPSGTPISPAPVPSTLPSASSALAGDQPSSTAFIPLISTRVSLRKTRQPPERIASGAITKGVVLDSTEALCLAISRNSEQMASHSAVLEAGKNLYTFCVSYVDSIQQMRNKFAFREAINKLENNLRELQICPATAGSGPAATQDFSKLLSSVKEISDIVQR
Procedure: as §1, §2, §3, §4, §5

T1 sequence (P50750 whole entry): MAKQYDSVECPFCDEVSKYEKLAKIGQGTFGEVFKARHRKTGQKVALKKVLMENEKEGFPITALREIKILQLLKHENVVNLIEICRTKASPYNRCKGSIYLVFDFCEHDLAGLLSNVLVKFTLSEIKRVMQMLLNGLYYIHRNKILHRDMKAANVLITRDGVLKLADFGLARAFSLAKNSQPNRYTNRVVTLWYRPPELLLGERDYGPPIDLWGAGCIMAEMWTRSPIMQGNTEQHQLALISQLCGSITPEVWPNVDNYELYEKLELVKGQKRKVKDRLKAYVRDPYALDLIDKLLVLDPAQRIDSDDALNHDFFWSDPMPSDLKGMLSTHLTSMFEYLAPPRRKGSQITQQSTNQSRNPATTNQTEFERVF
T1 sequence (O60563 whole entry partner): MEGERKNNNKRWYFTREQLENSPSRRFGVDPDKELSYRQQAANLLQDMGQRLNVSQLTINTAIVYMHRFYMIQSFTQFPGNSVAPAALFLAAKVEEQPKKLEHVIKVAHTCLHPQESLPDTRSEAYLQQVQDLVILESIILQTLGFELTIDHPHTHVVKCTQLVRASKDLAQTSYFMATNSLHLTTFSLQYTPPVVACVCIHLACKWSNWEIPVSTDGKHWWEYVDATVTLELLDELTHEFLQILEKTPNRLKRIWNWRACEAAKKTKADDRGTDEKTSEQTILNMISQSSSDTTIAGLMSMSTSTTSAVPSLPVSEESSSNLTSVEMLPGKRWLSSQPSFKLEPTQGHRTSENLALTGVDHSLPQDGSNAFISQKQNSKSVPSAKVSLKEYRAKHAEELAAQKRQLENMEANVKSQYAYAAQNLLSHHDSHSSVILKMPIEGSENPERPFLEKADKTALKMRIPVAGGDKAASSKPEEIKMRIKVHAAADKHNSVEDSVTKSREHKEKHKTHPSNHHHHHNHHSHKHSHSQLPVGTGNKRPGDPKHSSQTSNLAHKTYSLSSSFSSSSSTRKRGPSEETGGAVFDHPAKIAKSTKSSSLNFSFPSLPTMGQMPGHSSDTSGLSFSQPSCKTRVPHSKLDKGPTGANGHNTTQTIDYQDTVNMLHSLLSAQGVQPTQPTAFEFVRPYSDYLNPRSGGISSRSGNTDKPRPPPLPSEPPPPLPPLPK

| SMILES | IC50 [1] [nM] | IC50 [2] [nM] | IC50 [3] [nM] | IC50 [4] [nM] | IC50 [5] [nM] | IC50 [6] [nM] |
| --- | --- | --- | --- | --- | --- | --- |
| N#Cc1ccc(-n2cnc3cc(OCCOCCO)c(N[C@@H]4COCC[C@@H]4O)nc32)nc1 (relative stereo) [Compound 11, 6-[6-[2-(2-hydroxyethoxy)ethoxy]-5-[[(cis-3,4)-4-hydroxytetrahydropyran-3-yl]amino]imidazo[4,5-b]pyridin-3-yl]pyridine-3-carbonitrile] | 834 | > 1330 | 14.3 | > 1330 | > 1330 | – |
| N#Cc1ccc(-n2cnc3cc(OCCOCCO)c(NC4CCS(=O)(=O)CC4)nc32)nc1 [Compound 2, 6-{5-(1,1-dioxo-tetrahydro-2H-thiopyran-4-ylamino)-6-[2-(2-hydroxy-ethoxy)-ethoxy]-imidazo[4,5-b]pyridin-3-yl}-nicotinonitrile] | 712 | > 1330 | 25.4 | > 1330 | > 1330 | – |
| CN(c1nc2c(cc1OCCOCCO)ncn2-c1ccc(C#N)cn1)[C@H]1CC[C@@](C)(O)CC1 [Compound 3, 6-{6-[2-(2-hydroxy-ethoxy)-ethoxy]-5-[((cis-1,4)-4-hydroxy-4-methyl-cyclohexyl)-methyl-amino]-imidazo[4,5-b]pyridin-3-yl}-nicotinonitrile] | – | – | 21.7 | – | – | – |
| COCCOCCOc1cc2ncn(-c3ccc(C#N)cn3)c2nc1N(C)C1CCOCC1 [Compound 4, 6-{6-[2-(2-methoxy-ethoxy)-ethoxy]-5-[methyl-(tetrahydro-pyran-4-yl)-amino]-imidazo[4,5-b]pyridin-3-yl}-nicotinonitrile] | – | – | 523 | – | – | – |
| COCCOCCOc1cc2ncn(-c3ccc(C#N)cn3)c2nc1NC1CCOCC1 [Compound 5, 6-[6-[2-(2-methoxy-ethoxy)-ethoxy]-5-(tetrahydro-pyran-4-ylamino)-imidazo[4,5-b]pyridin-3-yl]-nicotinonitrile] | 2290 | > 2940 | 13.8 | > 4000 | > 4000 | 2690 |
| N#Cc1ccc(-n2cnc3cc(OCCOCCO)c(NC4CCCC(O)C4)nc32)nc1 (centres unmarked) [Compound 6, 6-{5-(3-hydroxy-cyclohexylamino)-6-[2-(2-hydroxy-ethoxy)-ethoxy]-imidazo[4,5-b]pyridin-3-yl}-nicotinonitrile] | 1030 | 754 | 4.85 | 2670 | > 4000 | 656 |
| N#Cc1ccc(-n2cnc3cc(OCCOCCO)c(NC4CCC(F)(F)CC4)nc32)nc1 [Compound 7, 6-{5-(4,4-difluoro-cyclohexylamino)-6-[2-(2-hydroxy-ethoxy)-ethoxy]-imidazo[4,5-b]pyridin-3-yl}-nicotinonitrile] | – | – | 14.3 | – | – | – |
| N#Cc1ccc(-n2cnc3cc(OCCOCCOS(=O)(=O)O)c(NC4CCOCC4)nc32)nc1 [Compound 8, sulfuric acid mono-(2-{2-[3-(5-cyano-pyridin-2-yl)-5-(tetrahydro-pyran-4-ylamino)-3H-imidazo[4,5-b]pyridin-6-yloxy]-ethoxy}-ethyl) ester] | – | – | 51.4 | – | – | – |
| CC(C)[C@H](N)C(=O)OCCOCCOc1cc2ncn(-c3ccc(C#N)cn3)c2nc1NC1CCOCC1 [Compound 9, (S)-2-amino-3-methyl-butyric acid 2-{2-[3-(5-cyano-pyridin-2-yl)-5-(tetrahydro-pyran-4-ylamino)-3H-imidazo[4,5-b]pyridin-6-yloxy]-ethoxy}-ethyl ester] | 639 | 286 | 13.5 | > 4000 | 3250 | 633 |
| COCCOCCOc1cc2ncn(-c3ccc(C#N)cn3)c2nc1N(C)[C@H]1CC[C@@](C)(O)CC1 [Compound 13, 6-[5-[((cis-1,4)-4-hydroxy-4-methyl-cyclohexyl)-methyl-amino]-6-[2-(2-methoxyethoxy)ethoxy]imidazo[4,5-b]pyridin-3-yl]pyridine-3-carbonitrile] | – | – | 39.1 | – | – | – |
| COCCOCCOc1cc2ncn(-c3ccc(C#N)cn3)c2nc1N[C@H]1CC[C@@](C)(O)CC1 [Compound 14, 6-[5-[((cis-1,4)-4-hydroxy-4-methylcyclohexyl)amino]-6-[2-(2-methoxyethoxy)ethoxy]imidazo[4,5-b]pyridin-3-yl]pyridine-3-carbonitrile] | 1390 | 319 | 3.45 | 1380 | 2240 | – |
